{
  "source": "patent US12558343B2",
  "about": "“Medical use of icaritin” (Lunan Pharmaceutical Group Corporation, priority 2020, dated 2026)",
  "key": {"[1]": {"tested_on": "prolonged bleeding time caused by heparin sodium", "test": "Tail-cut bleeding time in mice, prolonged by heparin sodium", "assay_type": "in vivo, ICR mice", "conditions": "group P, 200 mg/kg i.p. once a day 5 days; heparin sodium 150 U/kg i.v.", "from_the_text": "72 ICR mice aged 5-6 weeks, weighing 19-21 g, and half male and half female were selected. The mice were quarantined for 7 days after entering a laboratory and healthy mice were selected as test animals. The mice were weighed on first and last days of quarantine. According to the body weight on the last day of the quarantine, the male and female animals were divided into six groups by a simplified random method, namely, a normal group (C), a model group (V), low-, medium- and high-dose icaritin groups (2, 6, and 18 mg/kg, L, M, H) and a positive control drug group (200 mg/kg of etamsylate, P).\n(§1) After 15 min of the modeling, the tails of the mice were cut and bleeding time of each mouse was measured."}, "[2]": {"tested_on": "prolonged bleeding time caused by aspirin", "test": "Tail-cut bleeding time in mice, prolonged by aspirin", "assay_type": "in vivo, ICR mice", "conditions": "group P, 200 mg/kg i.p. once a day 5 days; aspirin 20 mg/kg i.g.", "method": "According to the body weight on the last day of the quarantine, the male and female animals were divided into six groups by a simplified random method, namely, a normal group (C), a model group (V), icaritin low-, medium- and high-dose groups (2, 6, and 18 mg/kg, L, M, H) and a positive control drug group (200 mg/kg of etamsylate, P).\nas §1"}, "[3]": {"conditions": "mouse, in vivo, ip, 200 mg/kg", "protocol": "(§7) After the grouping, the mice in the normal group and the model group were intragastrically administrated with 10 ml/kg of an icaritin solvent which was prepared by adding 12 g of hypromellose E5 and 0.1 g of sodium lauryl sulfate into 1 L of water. […] One hour after the last pre-administration, the mice in the model group and each administration group were injected with 150 U/kg of a heparin sodium injection through a tail vein to establish a model, and the mice in the normal group were injected with 10 ml/kg of a sodium chloride injection through a tail vein.\n(§8) After the bleeding time was detected, the mice were anesthetized with sodium pentobarbital, blood was collected from an abdominal cardinal vein, and indicators of blood routine examination and four coagulation indicators (prothrombin time, thromboplastin time, thrombin time, and fibrinogen) were detected."}, "[4]": {"conditions": "mouse, in vivo, ip, 200 mg/kg", "remark": "listed apart in the source", "protocol": "as §7, §8"}, "[5]": {"tested_on": "hemorrhagic transformation model induced by clopidogrel combined with cerebral ischemia-reperfusion", "test": "Hemorrhagic transformation after cerebral ischemia-reperfusion (MCAO) caused by clopidogrel, bleeding rate", "assay_type": "in vivo, ICR mice", "conditions": "12 mg/kg i.g. Day 1-3 with clopidogrel 15 mg/kg; 24 h after MCAO; of 8 (icaritin) or 7 (icariin) animals", "method": "(§2) 5-week-old ICR male mice were fed to 6-week-old and divided into a control group, a model group, an icaritin-3 mg/kg group, an icaritin-6 mg/kg group, an icaritin-12 mg/kg group, and an icariin-12 mg/kg group according to body weight. From day 1 to day 3 after the grouping, the mice in each icaritin group were separately intragastrically administrated with 3, 6, and 12 mg/kg of icaritin and the mice in the icariin group was intragastrically administrated with 12 mg/kg of icariin once a day, and the mice in other groups were intragastrically administrated with a corresponding vehicle; and except the control group, the mice in other groups were intragastrically administrated with aspirin (100 mg/kg) or clopidogrel (15 mg/kg) once a day at a volume of 10 mL/kg.\n(§3) On day 3, 10 min after the administration, the mice were anesthetized by intraperitoneal injection of 70 mg/kg of pentobarbital sodium and subjected to a cerebral ischemia-reperfusion (middle cerebral artery occlusion, MCAO) surgery with ischemia for 1 h and reperfusion for 23 h.\n(§4) 24 h after the surgery was an end point of the experiment.\n(§5) Bleeding rate: the mice were anesthetized by intraperitoneal injection of 70 mg/kg of pentobarbital sodium, a brain tissue was taken out, cerebral hemorrhage was recorded and a bleeding rate of the mice in each group was calculated. Cerebral hemorrhage rate %=number of animals with cerebral hemorrhage/number of surviving animals in each group×100."}, "[6]": {"tested_on": "hemorrhagic transformation model induced by aspirin combined with cerebral ischemia-reperfusion", "test": "Hemorrhagic transformation after cerebral ischemia-reperfusion (MCAO) caused by aspirin, bleeding rate", "assay_type": "in vivo, ICR mice", "conditions": "12 mg/kg i.g. Day 1-3 with aspirin 100 mg/kg; 24 h after MCAO; of 9 (icaritin) or 8 (icariin) animals", "method": "as §2, §3, §4, §5"}, "[7]": {"tested_on": "gastric bleeding caused by thrombolytic drug", "set-up": "species or system SD rats", "conditions": "rat, in vivo", "method": "(§6) An animal model of thromboembolic cerebral ischemia was prepared by blocking a middle cerebral artery with an autologous thrombus combined with a suture occlusion method, and a catheter was indwelled.\n24 h after the arterial administration, the rats in each group were anesthetized and dissected. The number of bleeding cases was observed under naked eyes and a light microscope, and a ratio of the number of bleeding cases to the total number was calculated."}, "gastric injury": {"tested_on": "gastric injury", "set-up": "species or system SD rats", "conditions": "rat, in vivo", "method": "as §6\nThe left lung and gastric antrum were excised, fixed with 100 g/L of a neutral formaldehyde solution, and dehydrated conventionally to be transparent, the dehydrated tissue was dipped with wax and embedded, the embedded tissue was sectioned and stained, and pathological changes were observed under a light microscope. A damage degree was graded according to a degree of tissue congestion, edema and cell degeneration from mild to severe: grade I: 0%-25%, grade II: 26%-50%, grade III: 51%-75%, and grade IV: >75% (bleeding was observed under the microscope)."}, "cerebral infarction": {"tested_on": "cerebral infarction", "test": "Same rt-PA thrombolysis model, cerebral infarction volume (rate)", "assay_type": "in vivo, rats", "conditions": "rt-PA 5 mg/kg alone, compared with the model group", "method": "An incision about 3.0-cm-long was taken from the skin in the middle of the neck, the muscle and the subcutaneous tissue were bluntly separated, the right bilateral common carotid arteries, external carotid arteries, and internal carotid arteries were separated to avoid damage to the vagus nerve, the internal carotid arteries were separated to the skull base, and the external carotid arteries were ligated at the bifurcation of the bilateral common carotid arteries. 0.1 ml of arterial blood from the femoral artery of the rat was taken using a 1-ml syringe, 4 U of thrombin was added, the materials were uniformly mixed and stood for 8-10 min, when the blood was coagulated, and the coagulated blood was injected into a 24 G venous indwelling needle to prepare a thrombus about 1-cm-long followed by a syringe containing 1-2 ml of normal saline. […] Infarct volume=non-ischemic side hemisphere volume-ischemic side hemisphere non-infarct area volume, and an infarct volume ratio was expressed as the percentage (%) of the infarct volume to the non-ischemic side hemisphere volume."}, "myocardial infarction [8]": {"tested_on": "myocardial infarction", "test": "Isoproterenol myocardial infarction rats, electrocardiogram", "assay_type": "in vivo, Wistar male rats", "conditions": "rt-PA 5 mg/kg femoral vein, compared with the model group", "method": "60 Wistar male rats (SPF grade), weighing 220-260 g, were randomly divided into a myocardial infarction modeling group and a control group according to a random number table, with 12 rats in the control group and 48 rats in the model group. The rats were conventionally fed in separate cages with 4 rats per cage. After a normal electrocardiogram was traced, the rats in the myocardial infarction modeling group were subcutaneously injected with 150 mg·kg^−1·d^−1 of isoproterenol (ISO) in a volume of 0.2 mL/100 g every other 24 h for 2 consecutive days. The rats in the control group were subcutaneously injected with a same amount (0.2 mL/100 g) of normal saline according the same method for 2 consecutive days. The electrocardiogram was monitored 24 h after the second subcutaneous injection of the isoproterenol. […] The ST segment elevation of greater than 0.2 mV in lead II or the formation of Q wave became the standard for myocardial infarction. […]\nThe rats were anesthetized by inhalation of ether. […] The electrocardiogram of the rat was monitored using the limb leads according to right upper limb-red, left upper limb-yellow, left lower limb-green, and right lower limb-black, an electrocardiograph was turned on at a paper speed of 50 mm/s and a voltage of 1 mv, and the animals were returned to the cages after the electrocardiogram."}, "myocardial infarction [9]": {"tested_on": "myocardial infarction", "test": "Isoproterenol myocardial infarction rats, heart weight / body weight", "assay_type": "in vivo, Wistar male rats", "conditions": "rt-PA 5 mg/kg femoral vein", "method": "60 Wistar male rats (SPF grade), weighing 220-260 g, were randomly divided into a myocardial infarction modeling group and a control group according to a random number table, with 12 rats in the control group and 48 rats in the model group. The rats were conventionally fed in separate cages with 4 rats per cage. After a normal electrocardiogram was traced, the rats in the myocardial infarction modeling group were subcutaneously injected with 150 mg·kg^−1·d^−1 of isoproterenol (ISO) in a volume of 0.2 mL/100 g every other 24 h for 2 consecutive days. The rats in the control group were subcutaneously injected with a same amount (0.2 mL/100 g) of normal saline according the same method for 2 consecutive days. The electrocardiogram was monitored 24 h after the second subcutaneous injection of the isoproterenol. […] The ST segment elevation of greater than 0.2 mV in lead II or the formation of Q wave became the standard for myocardial infarction.\nA total of 36 modeled rats were selected from the modeling group and randomly divided into a model group, a thrombolysis group and a thrombolytic drug+icaritin group according to the random number table. […]"}, "[10]": {"tested_on": "hemorrhagic transformation induced by thrombolytic drug", "test": "Rat middle cerebral artery autologous thrombosis with rt-PA thrombolysis, cerebral hemorrhage volume", "assay_type": "in vivo", "method": "A rat model of middle cerebral artery autologous thrombosis was prepared according to the following method: rats were anesthetized by intraperitoneal injection of 10% […] at 350 mg/kg body weight and fixed on an operating table in a supine position, skin of the rats was routinely disinfected according to aseptic operation procedures, and draping was performed. An incision about 3.0-cm-long was taken from the skin in the middle of the neck, the muscle and the subcutaneous tissue were bluntly separated, the right bilateral common carotid arteries, external carotid arteries, and internal carotid arteries were separated to avoid damage to the vagus nerve, the internal carotid arteries were separated to the skull base, and the external carotid arteries were ligated at the bifurcation of the bilateral common carotid arteries. 0.1 ml of arterial blood from the femoral artery of the rat was taken using a 1-ml syringe, 4 U of thrombin was added, the materials were uniformly mixed and stood for 8-10 min, when the blood was coagulated, and the coagulated blood was injected into a 24 G venous indwelling needle to prepare a thrombus about 1-cm-long followed by a syringe containing 1-2 ml of normal saline. […]\nAnother 4 healthy rats were taken, sacrificed by excessive anesthesia, and subjected to cardiac perfusion. […] cerebral hemisphere tissues were taken, 0, 0.5, 1, 2, 4, 8, 16, 32, and 50 μL of arterial blood of male SD rats was successively added to each hemisphere tissue, PBS at a pH of 7.4 was added to a total volume of 3 ml, the tissue was homogenized for 30 s and ultrasonically lysed, and centrifugation was performed at 13,000 r/min and 4° C. for 30 min 0.8 mL of Drabkin's reagent was mixed with 0.2 mL of a supernatant of each sample, an obtained mixture was placed in a dark place at a room temperature for 10 min, and an absorbance at a wavelength of 540 nm (absorbance of sample not containing blood was set to 0) was measured. The absorbance was set as a Y-axis and the blood volume in each sample was set as an X-axis to draw a standard curve. […]"}},
  "data": [
    {"molecule": "O=S(=O)(O)c1cc(O)ccc1O", "note": "[Etamsylate, reference compound]", "values": [
      {"measurement": "Bleeding time", "setting": "[1]", "result": "21.4 ± 6.7^$ min"},
      {"measurement": "Bleeding time", "setting": "[2]", "result": "26.4 ± 6.4^$ min"},
      {"measurement": "Fibrinogen", "setting": "[3]", "result": "1.86 ± 0.40", "unit": "g/L"},
      {"measurement": "Prothrombin time", "setting": "[3]", "result": "10.03 ± 1.24", "unit": "s"},
      {"measurement": "Thrombin time", "setting": "[3]", "result": "24.34 ± 1.37", "unit": "s"},
      {"measurement": "Thromboplastin time", "setting": "[3]", "result": "22.78 ± 2.34", "unit": "s"},
      {"measurement": "Number of erythrocytes", "setting": "[4]", "result": "6.998 ± 0.871 10^12/L"},
      {"measurement": "Number of leukocytes", "setting": "[4]", "result": "1.903 ± 0.221 10^9/L"},
      {"measurement": "Number of platelets", "setting": "[4]", "result": "1097 ± 114 10^9/L"}
    ]},
    {"molecule": "COc1ccc(-c2oc3c(CC=C(C)C)c(O[C@@H]4O[C@H](CO)[C@@H](O)[C@H](O)[C@H]4O)cc(O)c3c(=O)c2O[C@@H]2O[C@@H](C)[C@H](O)[C@@H](O)[C@H]2O)cc1", "note": "[Icariin, reference compound]", "values": [
      {"measurement": "Number of animals with cerebral hemorrhage", "setting": "[5]", "result": 5},
      {"measurement": "Number of animals with cerebral hemorrhage", "setting": "[6]", "result": 6}
    ]},
    {"molecule": "Urokinase", "values": [
      {"measurement": "Bleeding rate", "setting": "[7]", "result": "68.8^$ $ %"},
      {"measurement": "Number of bleeding animals", "setting": "[7]", "result": 11},
      {"measurement": "Incidence of gastric injury", "setting": "gastric injury", "result": "100 ^$ $ %"},
      {"measurement": "Number of animals, gastric damage grade I", "setting": "gastric injury", "result": 1},
      {"measurement": "Number of animals, gastric damage grade II", "setting": "gastric injury", "result": 2},
      {"measurement": "Number of animals, gastric damage grade III", "setting": "gastric injury", "result": 2},
      {"measurement": "Number of animals, gastric damage grade IV", "setting": "gastric injury", "result": 11},
      {"measurement": "Total number of animals with gastric injury", "setting": "gastric injury", "result": 16}
    ]},
    {"molecule": "rt-PA: alteplase (rt-PA), thrombolytic drug, 5 mg/kg via the femoral vein", "values": [
      {"measurement": "Pale white area of the infarcted area", "setting": "cerebral infarction", "result": "significantly decreased"},
      {"measurement": "Pathological Q waves in electrocardiogram", "setting": "myocardial infarction [8]", "result": "disappeared"},
      {"measurement": "Whole heart weight", "setting": "myocardial infarction [9]", "result": "702.3 ± 10.8", "unit": "mg"},
      {"measurement": "Heart weight/body weight", "setting": "myocardial infarction [9]; model group 4.0, control 2.6", "result": "2.8^$ $ mg/g"},
      {"measurement": "Cerebral hemorrhage volume", "setting": "[10]; rt-PA 5 mg/kg femoral vein 3 h after modeling, 3 h after thrombolysis", "result": "6.43 ± 0.89"},
      {"measurement": "Cerebral hemorrhage volume", "setting": "[10]; rt-PA 5 mg/kg femoral vein, 6 h after thrombolysis", "result": "9.78 ± 1.01"},
      {"measurement": "Cerebral hemorrhage volume", "setting": "[10]; rt-PA 5 mg/kg femoral vein, 24 h after thrombolysis", "result": "15.32 ± 2.01"}
    ]}
  ]
}
